We go through 11 compounds from article PMC9571302, “Evaluation of Major Constituents of Medicinally Important Plants for Anti-Inflammatory, Antidiabetic and AGEs Inhibiting Properties: In Vitro and Simulatory Evidence” (Molecules, 2022).

Read-outs that look alike come from different tables or passages of the source.

For data set [1], the target named is T1, bovine serum albumin (BSA) glycation by glucose (Bos taurus, UniProt P02769).
T1 construct: purchased Merck (Dorset, UK) and Oxoid (Hampshire, UK)
The data set is described as follows: AGEs assay, non-oxidative (BSA-glucose assay). Type of data set: biochemical. The method, then: 4.5.2. AGEs Assay (BSA-Glucose Assay)
The AGEs assay was accomplished by using a standard protocol. The protein source (bovine serum albumin, BSA) (10 mg/mL; 135 µL) was mixed with D-glucose solution (500 mM, 135 µL in phosphate buffer; 50 mM, pH 7.4), NaN3 (sodium azide; 0.02%) and test samples (various concentrations). The reaction mixtures were kept at 60 °C for 1 week to facilitate glycation. Finally, trichloroacetic acid (10 µL, 100%) was added to it to stop the reaction and precipitate the unbound material. […] Aminoguanidine was used as positive control. The control samples used for the experiment were prepared using the same protocol without the test sample.
The AGEs inhibition was calculated as % inhibition = {1 − [Fluo(BSA + glucose + test substance) − Fluo (BSA + test substance)]/[Fluo (BSA + glucose) − Fluo(BSA)]} × 100 where Fluo is the fluorescence intensity. The IC50 was calculated using MS Excel.

The next data set addresses α-glucosidase. The data set is described as follows: α-Glucosidase inhibition assay. Type of data set: biochemical, Saccharomyces cerevisiae. The method, then: 4.5.1. α-Glucosidase Inhibition Assay
The α-glucosidase inhibition experiment was accomplished by using a modified method. Initially, the enzyme solution (from Saccharomyces cerevisiae) (0.2 units/mL dissolved in 0.1 M phosphate buffer; pH 6.8) was mixed with the test sample (1 to 0.039 mg/mL) and incubated in an oven (37 °C for 10 min). After incubation, the substrate (p-nitrophenyl-α-D-glucopyranoside; 0.29 mM) was added to the enzyme and test sample solution and incubated for another 30 min (37 °C).
The percentage of inhibition was determined using the following formula: % Inhibition = [1 − absorbance of test sample/absorbance of control] × 100

Data set [2] addresses T2, BSA cross-link formation (BSA-MGO) (Bos taurus, UniProt P02769).
T2 construct: purchased Merck (Dorset, UK) and Oxoid (Hampshire, UK)
The data set is described as follows: Protein cross-linking assay by SDS-PAGE, BSA-MGO. Conditions: SDS-PAGE integrated density. Type of data set: biochemical, bovine. The method, then:
(§1) 4.5.4. Protein Cross-Linking Assay
(§2) Protein cross-linked by AGEs were observed by SDS-PAGE (sodium dodecyl sulphate-polyacrylamide gel electrophoresis). In this experiment, gels (10%) were made and stained with dye (0.25% Coomassie blue). The protein samples (6 µL) were diluted with Tris–HCl buffer (3.75 mL, 0.05 M; pH 6.8) also comprising sodium dodecyl sulphate (150 µL, 10% w/v), 2-mercaptoethanol 1% (v/v) and glycerin 20% v/v), followed by boiling for 5 min. The ladder (12 μL) was loaded into the well on gel preceded by the loading of bromophenol blue (2 μL). After loading, the electrophoresis was accomplished by using the Mini-Protean® Tetra Cell apparatus (Bio-Rad, UK). Afterwards, the gels were stained in a solution containing Coomassie blue [0.25% (w/v)], methanol [50% (v/v)] and acetic acid [10% (v/v)].
(§3) 4.5.5. SDS-PAGE Gels Image Analysis
(§4) The developed gel was stained with Coomassie blue and images were obtained using GelDoc. Finally, the Image J tool was used for the determination of integrated density (IntDen). The integrated density was employed further for the determination of percentage inhibition. The integrated density (ID) was determined as follows:Integrated density (ID) = N × (mean − background) where N is the number of pixels in the selection and the background is the modal grey value (most common pixel value) after smoothing the histogram.

In another data set the target is T3, 15-LOX (lipoxygenase) (Glycine max, UniProt P08170).
T3 construct: purchased Merck (Dorset, UK) and Oxoid (Hampshire, UK)
T3 sequence (P08170 1-839): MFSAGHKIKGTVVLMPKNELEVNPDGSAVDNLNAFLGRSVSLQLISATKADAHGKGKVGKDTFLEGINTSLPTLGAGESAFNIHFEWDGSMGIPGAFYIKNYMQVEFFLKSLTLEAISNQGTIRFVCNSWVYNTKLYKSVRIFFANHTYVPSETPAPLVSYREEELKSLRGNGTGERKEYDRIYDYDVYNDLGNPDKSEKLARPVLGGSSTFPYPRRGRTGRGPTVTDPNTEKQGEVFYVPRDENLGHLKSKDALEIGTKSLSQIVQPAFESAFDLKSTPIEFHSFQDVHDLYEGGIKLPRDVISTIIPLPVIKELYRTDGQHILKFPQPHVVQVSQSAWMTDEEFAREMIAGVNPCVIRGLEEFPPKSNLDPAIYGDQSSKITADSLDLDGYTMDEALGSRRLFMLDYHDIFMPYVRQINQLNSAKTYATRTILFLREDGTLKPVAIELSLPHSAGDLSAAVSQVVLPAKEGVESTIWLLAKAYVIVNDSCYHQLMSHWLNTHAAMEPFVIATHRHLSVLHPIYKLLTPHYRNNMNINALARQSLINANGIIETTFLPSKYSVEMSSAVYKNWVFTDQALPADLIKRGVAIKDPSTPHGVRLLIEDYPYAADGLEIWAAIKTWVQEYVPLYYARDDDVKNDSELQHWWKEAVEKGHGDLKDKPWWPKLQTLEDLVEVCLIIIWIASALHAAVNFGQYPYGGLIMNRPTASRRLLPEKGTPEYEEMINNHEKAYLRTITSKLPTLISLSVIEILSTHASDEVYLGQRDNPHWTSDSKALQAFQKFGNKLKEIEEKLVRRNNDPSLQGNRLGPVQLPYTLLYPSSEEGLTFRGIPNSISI
As to the kind of experiment: 15-Lipoxygenase assay. Type of data set: biochemical.

Data set [3] deals with T4, bovine serum albumin (BSA) glycation by methylglyoxal (Bos taurus, UniProt P02769).
T4 construct: purchased Merck (Dorset, UK) and Oxoid (Hampshire, UK)
As to the kind of experiment: AGEs assay, oxidative (BSA-MGO assay). In kind it is biochemical. The procedure:
The test samples were added to this reaction mixture and stored at 37 °C for a week. […] The control samples used for the experiment were prepared using the same protocol without a test sample.
The AGEs inhibition was determined as % inhibition = {1 − [(Fluo (BSA + MGO + test substance) − Fluo (BSA + test substance)]/[(Fluo (BSA + MGO) − Fluo (BSA)]} × 100 where Fluo is the fluorescence intensity. The IC50 was calculated using MS Excel.

The target in data set [4] is T5, BSA cross-link formation (BSA-glucose) (Bos taurus, UniProt P02769).
T5 construct: purchased Merck (Dorset, UK) and Oxoid (Hampshire, UK)
The data set is described as follows: Protein cross-linking assay by SDS-PAGE, BSA-glucose. Type of data set: biochemical, bovine. Conditions: SDS-PAGE integrated density. The procedure:
as §1, §2, §3, §4

Setting [5] is: non-oxidative mode, Table 6, read-out: Protein Glycation BSA-Glucose (IC50) (converted).
[6] abbreviates: oxidative mode, Table 6, read-out: Protein Glycation BSA-MGO (IC50) (converted).
Where [7] appears, read: read-out: 15-LOX Assay (% Inhibition).

T5 sequence (P02769 25-607): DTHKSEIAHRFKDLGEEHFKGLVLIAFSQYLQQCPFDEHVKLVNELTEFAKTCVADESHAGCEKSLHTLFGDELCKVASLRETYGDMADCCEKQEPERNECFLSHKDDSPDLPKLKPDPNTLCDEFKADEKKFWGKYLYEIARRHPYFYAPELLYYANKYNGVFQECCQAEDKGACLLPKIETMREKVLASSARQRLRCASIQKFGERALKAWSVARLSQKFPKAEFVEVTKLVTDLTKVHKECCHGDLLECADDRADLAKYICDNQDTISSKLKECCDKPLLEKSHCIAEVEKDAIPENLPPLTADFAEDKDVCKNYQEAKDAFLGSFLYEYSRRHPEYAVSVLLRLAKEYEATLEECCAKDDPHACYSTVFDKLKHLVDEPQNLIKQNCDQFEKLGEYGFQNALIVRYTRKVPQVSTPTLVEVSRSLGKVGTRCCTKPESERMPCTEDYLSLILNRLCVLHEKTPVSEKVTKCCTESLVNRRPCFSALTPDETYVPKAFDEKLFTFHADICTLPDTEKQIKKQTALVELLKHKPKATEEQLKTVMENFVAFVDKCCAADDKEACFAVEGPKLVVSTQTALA
T4 sequence (P02769 25-607): as above
T1 sequence (P02769 25-607): as above
T2 sequence (P02769 25-607): as above
Procedure for 15-LOX (lipoxygenase): The anti-inflammatory activity of test samples was evaluated using a standard protocol [65]. To the enzyme solution (200 units/mL; 487.5 µL), different concentrations of test sample (12.5 µL (2–0.062 mM) in DMSO were added and incubated for 5 min at 37 °C. The absorbance was recorded immediately after the addition of substrate (500 µL of substrate (250 mM linoleic acid in 0.2 M borate buffer, pH 9) and after every min up to 5 min at 234 nm by using a UV spectrophotometer (UV-1601, SHEMADZU, Kyoto, Japan).
The percentage inhibition of enzyme activity was calculated as follows:% inhibition = ([ΔA1/Δt] − [ΔA2/Δt]/(ΔA1/Δt) × 100 where ΔA1/Δt and ΔA2/Δt are the increase rate in absorbance at 234 nm for a sample without test substance and with test substance, respectively.

Turning to `S=C=NCCc1ccccc1` [2-Phenylethylisothiocyanate, 2-phenylethylisothiocyanate], in data set [1], the “Protein Glycation BSA-Glucose (IC50)” value is listed as “Inactive”. The “α-Glucosidase (IC50)” value on α-glucosidase was determined as 28.9 ± 0.1 µg/mL. Further, the “Inhibition of protein cross-link formation” value in data set [2] came out at 48%. In addition, the “15-LOX Assay (% Inhibition)” value on 15-LOX (lipoxygenase) (25 µg/mL) was “Inactive ^5”. Moreover, the “Protein Glycation BSA-MGO (IC50)” value in data set [3] was “Inactive”.
As for `C=C1CC/C=C(\C)CC[C@@H]2[C@@H]1CC2(C)C` [Caryophyllene, trans-caryophyllene], the “Protein Glycation BSA-Glucose (IC50)” value in data set [1] is recorded as “Inactive”. For the same compound, the “α-Glucosidase (IC50)” value with α-glucosidase is recorded as “Inactive”. In addition, on 15-LOX (lipoxygenase) (25 µg/mL), the “15-LOX Assay (% Inhibition)” value is listed as “Inactive ^6”. In addition, in data set [3], the “Protein Glycation BSA-MGO (IC50)” value is “Inactive”.
With `O=C(O)c1cc(O)c(O)c(O)c1` [gallic acid], the “α-Glucosidase (IC50)” value at α-glucosidase is given as 8.2 µg/mL.
As usually defined, the IC50 is the concentration that inhibits the measured activity by half. What is called inhibition is the percentage by which the read-out fell short of the control. Consider `C[C@@H]1O[C@@H](OC[C@H]2O[C@@H](Oc3c(-c4ccc(O)c(O)c4)oc4cc(O)cc(O)c4c3=O)[C@H](O)[C@@H](O)[C@@H]2O)[C@H](O)[C@H](O)[C@H]1O` [Rutin, reference compound], for which the IC50 in data set [1] (setting [5]) was 49.1 µM; in data set [3] (setting [6]) it was 1670 µM. For the same compound, at 15-LOX (lipoxygenase) (12.5 µg/mL), at 12.5 µg/mL the inhibition was 62 ± 0.1%.
On to `O=c1c(O)c(-c2ccc(O)c(O)c2)oc2cc(O)cc(O)c12` [Quercetin, quercetin], for which the “Inhibition of protein cross-link formation” value in data set [4] is 53%. The compound also showed an inhibition at 25 µg/mL against 15-LOX (lipoxygenase) (25 µg/mL) of 62 ± 0.1%.
Turning to `C=CCc1ccc(O)c(OC)c1` [Eugenol, eugenol], in data set [1], half-maximal inhibition (IC50) was put at 244 µM. Also, in the data set with α-glucosidase, the “α-Glucosidase (IC50)” value is “Inactive”. In addition, the inhibition at 83 µg/mL on 15-LOX (lipoxygenase) (setting [7]) was 51 ± 0.2%. Further, the “Protein Glycation BSA-MGO (IC50)” value in data set [3] was “Inactive”.
With `O=C1C=CC(=O)c2c(O)cccc21` [Juglone, juglone], the concentration for half-maximal inhibition (IC50) in data set [1] (setting [5]) was 345 µM; in data set [3] (setting [6]), 632 µM. At α-glucosidase, the “α-Glucosidase (IC50)” value was 5.7 ± 0.1 µg/mL. Also, in data set [2], the “Inhibition of protein cross-link formation” value is listed as 39%. On 15-LOX (lipoxygenase) (2.5 µg/mL), this compound showed an inhibition at 2.5 µg/mL of 57 ± 0.1%.
Regarding `C/C1=C\CC/C(C)=C/CC(C)(C)/C=C/C1` [α-Humulene, α-humulene], the “Protein Glycation BSA-Glucose (IC50)” value in data set [1] (non-oxidative mode, Table 6) is given as “Inactive”. Further, in the data set with α-glucosidase, the “α-Glucosidase (IC50)” value is “Inactive”. The “Inhibition of protein cross-link formation” value in data set [2] is given as 40%. Further, the “15-LOX Assay (% Inhibition)” value on 15-LOX (lipoxygenase) (13.0 µg/mL) is listed as 60.0 ± 0.1% ^3. Moreover, in data set [3] (oxidative mode, Table 6), the “Protein Glycation BSA-MGO (IC50)” value is “Inactive”.
In the case of `C=C1CC[C@H]2O[C@]2(C)CC[C@@H]2[C@@H]1CC2(C)C` [Caryophyllene oxide, caryophyllene-oxide], in data set [1] (non-oxidative mode, Table 6), the “Protein Glycation BSA-Glucose (IC50)” value is “Inactive”. In addition, in the data set on α-glucosidase, the “α-Glucosidase (IC50)” value is listed as “Inactive”. Also, in data set [2], the “Inhibition of protein cross-link formation” value came out at 35%. On 15-LOX (lipoxygenase) (12.5 µg/mL), the “15-LOX Assay (% Inhibition)” value is 50.0± 0.1% ^2. For the same compound, in data set [3] (oxidative mode, Table 6), the “Protein Glycation BSA-MGO (IC50)” value is recorded as “Inactive”.
For `O=c1cc(-c2ccc(O)cc2)oc2cc(O)cc(O)c12` [Apigenin, apigenin], in data set [4], the “Inhibition of protein cross-link formation” value came to 51%. In data set [1], the IC50 was 1670 µM. On α-glucosidase, the “α-Glucosidase (IC50)” value is given as 24.4 ± 0.1 µg/mL. At 15-LOX (lipoxygenase) (14.1 µg/mL), 14.1 µg/mL produced 53 ± 0.1% inhibition. Further, the “Protein Glycation BSA-MGO (IC50)” value in data set [3] is recorded as “Inactive”.
As for `C[C@@H]1O[C@@H](Oc2c(-c3ccc(O)c(O)c3)oc3cc(O)cc(O)c3c2=O)[C@H](O)[C@H](O)[C@H]1O` [Quercitrin, quercitrin], the “Inhibition of protein cross-link formation” value in data set [4] was found to be 55%. In addition, the IC50 in data set [1] is 201 µM; in data set [3], 758 µM. The “α-Glucosidase (IC50)” value on α-glucosidase is recorded as 7.6 ± 0.1 µg/mL. On 15-LOX (lipoxygenase) (setting [7]), the inhibition at 16.2 µg/mL was 65 ± 0.1%.
